Tested on: BJ
Assay: Cytotoxicity against human BJ cells assessed as reduction in cell viability measured after 72 hrs by MTS assay
Format: cell-based
Conditions: not given
For `C=C(/C=C/c1ccc(OC)cc1)[C@@H]1CC[C@]2(C(=O)O)CC[C@]3(C)[C@H](CC[C@@H]4[C@@]5(C)CC[C@H](O)C(C)(C)[C@@H]5CC[C@]43C)[C@@H]12`, the IC50 was greater than 50 µM. `C=C(/C=C/c1ccc(C)cc1)[C@@H]1CC[C@]2(C(=O)O)CC[C@]3(C)[C@H](CC[C@@H]4[C@@]5(C)CC[C@H](O)C(C)(C)[C@@H]5CC[C@]43C)[C@@H]12` showed an IC50 greater than 50 µM.

Tested on: MRC5
Assay: Cytotoxicity against human MRC5 cells assessed as reduction in cell viability measured after 72 hrs by MTS assay
Format: cell-based
Conditions: MRC5, 72 h
In the case of `C=C(/C=C/c1ccc(OC)cc1)[C@@H]1CC[C@]2(C(=O)O)CC[C@]3(C)[C@H](CC[C@@H]4[C@@]5(C)CC[C@H](O)C(C)(C)[C@@H]5CC[C@]43C)[C@@H]12`, the IC50 is reported as greater than 50 µM. Compound `C=C(/C=C/c1ccc(C)cc1)[C@@H]1CC[C@]2(C(=O)O)CC[C@]3(C)[C@H](CC[C@@H]4[C@@]5(C)CC[C@H](O)C(C)(C)[C@@H]5CC[C@]43C)[C@@H]12` has an IC50 greater than 50 µM.

Tested on: CEM-DNR
Assay: Cytotoxicity against daunorubicin resistant human CEM-DNR cells assessed as reduction in cell viability measured after 72 hrs by MTS assay
Format: functional, cell-based
Conditions: not given
`C=C(/C=C/c1ccc(OC)cc1)[C@@H]1CC[C@]2(C(=O)O)CC[C@]3(C)[C@H](CC[C@@H]4[C@@]5(C)CC[C@H](O)C(C)(C)[C@@H]5CC[C@]43C)[C@@H]12` gave an IC50 greater than 50 µM. `C=C(/C=C/c1ccc(C)cc1)[C@@H]1CC[C@]2(C(=O)O)CC[C@]3(C)[C@H](CC[C@@H]4[C@@]5(C)CC[C@H](O)C(C)(C)[C@@H]5CC[C@]43C)[C@@H]12` gave an IC50 of 26.1 µM.

Tested on: A549
Assay: Cytotoxicity against human A549 cells assessed as reduction in cell viability measured after 72 hrs by MTS assay
Format: functional, cell-based
Conditions: A549, 72 h
Compound `C=C(/C=C/c1ccc(OC)cc1)[C@@H]1CC[C@]2(C(=O)O)CC[C@]3(C)[C@H](CC[C@@H]4[C@@]5(C)CC[C@H](O)C(C)(C)[C@@H]5CC[C@]43C)[C@@H]12` has an IC50 greater than 50 µM. With `C=C(/C=C/c1ccc(C)cc1)[C@@H]1CC[C@]2(C(=O)O)CC[C@]3(C)[C@H](CC[C@@H]4[C@@]5(C)CC[C@H](O)C(C)(C)[C@@H]5CC[C@]43C)[C@@H]12` the IC50 was greater than 50 µM.

Tested on: CCRF-CEM
Assay: Cytotoxicity against human CCRF-CEM cells assessed as reduction in cell viability measured after 72 hrs by MTS assay
Format: functional, cell-based
Conditions: not given
Work on `C=C(/C=C/c1ccc(OC)cc1)[C@@H]1CC[C@]2(C(=O)O)CC[C@]3(C)[C@H](CC[C@@H]4[C@@]5(C)CC[C@H](O)C(C)(C)[C@@H]5CC[C@]43C)[C@@H]12` yielded an IC50 of 20.9 µM. Work on `C=C(/C=C/c1ccc(C)cc1)[C@@H]1CC[C@]2(C(=O)O)CC[C@]3(C)[C@H](CC[C@@H]4[C@@]5(C)CC[C@H](O)C(C)(C)[C@@H]5CC[C@]43C)[C@@H]12` yielded an IC50 of 5.9 µM.

Tested on: not listed separately
Assay: Cytotoxicity against human HCT116 p53-null cells assessed as reduction in cell viability measured after 72 hrs by MTS assay
Format: functional, cell-based
Conditions: not given
For `C=C(/C=C/c1ccc(OC)cc1)[C@@H]1CC[C@]2(C(=O)O)CC[C@]3(C)[C@H](CC[C@@H]4[C@@]5(C)CC[C@H](O)C(C)(C)[C@@H]5CC[C@]43C)[C@@H]12`, the IC50 was 48.9 µM. `C=C(/C=C/c1ccc(C)cc1)[C@@H]1CC[C@]2(C(=O)O)CC[C@]3(C)[C@H](CC[C@@H]4[C@@]5(C)CC[C@H](O)C(C)(C)[C@@H]5CC[C@]43C)[C@@H]12` showed an IC50 of 18.2 µM.

Tested on: K562
Assay: Cytotoxicity against human K562 cells assessed as reduction in cell viability measured after 72 hrs by MTS assay
Format: functional, cell-based
Conditions: K562, 72 h
`C=C(/C=C/c1ccc(OC)cc1)[C@@H]1CC[C@]2(C(=O)O)CC[C@]3(C)[C@H](CC[C@@H]4[C@@]5(C)CC[C@H](O)C(C)(C)[C@@H]5CC[C@]43C)[C@@H]12` showed an IC50 greater than 50 µM. For `C=C(/C=C/c1ccc(C)cc1)[C@@H]1CC[C@]2(C(=O)O)CC[C@]3(C)[C@H](CC[C@@H]4[C@@]5(C)CC[C@H](O)C(C)(C)[C@@H]5CC[C@]43C)[C@@H]12`, the IC50 was greater than 50 µM.

Tested on: HCT-116
Assay: Cytotoxicity against human HCT-116 cells assessed as reduction in cell viability measured after 72 hrs by MTS assay
Format: functional, cell-based
Conditions: HCT-116, 72 h
`C=C(/C=C/c1ccc(OC)cc1)[C@@H]1CC[C@]2(C(=O)O)CC[C@]3(C)[C@H](CC[C@@H]4[C@@]5(C)CC[C@H](O)C(C)(C)[C@@H]5CC[C@]43C)[C@@H]12` showed an IC50 of 42.4 µM. Compound `C=C(/C=C/c1ccc(C)cc1)[C@@H]1CC[C@]2(C(=O)O)CC[C@]3(C)[C@H](CC[C@@H]4[C@@]5(C)CC[C@H](O)C(C)(C)[C@@H]5CC[C@]43C)[C@@H]12` has an IC50 of 21.4 µM.

Tested on: U2OS
Assay: Cytotoxicity against human U2OS cells assessed as reduction in cell viability measured after 72 hrs by MTS assay
Format: functional, cell-based
Conditions: not given
With `C=C(/C=C/c1ccc(OC)cc1)[C@@H]1CC[C@]2(C(=O)O)CC[C@]3(C)[C@H](CC[C@@H]4[C@@]5(C)CC[C@H](O)C(C)(C)[C@@H]5CC[C@]43C)[C@@H]12` the IC50 was 48.6 µM. With `C=C(/C=C/c1ccc(C)cc1)[C@@H]1CC[C@]2(C(=O)O)CC[C@]3(C)[C@H](CC[C@@H]4[C@@]5(C)CC[C@H](O)C(C)(C)[C@@H]5CC[C@]43C)[C@@H]12` the IC50 was greater than 50 µM.

Tested on: not listed separately
Assay: Cytotoxicity against paclitaxel resistant human K562-Tax cells assessed as reduction in cell viability measured after 72 hrs by MTS assay
Format: functional, cell-based
Conditions: not given
For `C=C(/C=C/c1ccc(OC)cc1)[C@@H]1CC[C@]2(C(=O)O)CC[C@]3(C)[C@H](CC[C@@H]4[C@@]5(C)CC[C@H](O)C(C)(C)[C@@H]5CC[C@]43C)[C@@H]12`, the IC50 was 48.6 µM. `C=C(/C=C/c1ccc(C)cc1)[C@@H]1CC[C@]2(C(=O)O)CC[C@]3(C)[C@H](CC[C@@H]4[C@@]5(C)CC[C@H](O)C(C)(C)[C@@H]5CC[C@]43C)[C@@H]12` showed an IC50 of 26.3 µM.
